Among the test systems are SF-295 CNS; OVCAR-3 ovarian; ACHN renal; MALME-3M melanoma; UO-31 renal; UACC-62 melanoma; HOP-62 NSCLC; COLO 205 colon; HCC-2998 colon.
Experiment in all cases: NCI-60 cell line screen, 48 h

This is an account of results in PubChem BioAssay (NCI).

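Each compound was tested at five concentrations against cells in 96-well plates for 48 hours. TGI marks complete inhibition of growth.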

With `COc1ccc(/C(C#N)=C2/O/C(=N/N)C(c3ccc(OC)c(OC)c3)C2=O)cc1OC` (stereo not drawn), the TGI in the assay on SF-295 CNS, with OVCAR-3 ovarian, with ACHN renal, with MALME-3M melanoma, with UO-31 renal and with UACC-62 melanoma was above 100 µM in each case.
With `COc1ccc(C2C(C(=O)O)=C(COC(C)=O)Oc3cc4c(cc32)OCO4)c(OC)c1` (stereo not drawn), the TGI in the assay with SF-295 CNS, in the assay on OVCAR-3 ovarian, with HOP-62 NSCLC, in the assay on ACHN renal, in the assay on MALME-3M melanoma and with UO-31 renal was above 100 µM in each case. The TGI in the assay with UACC-62 melanoma and in the assay with COLO 205 colon was above 100 µM each time.
With `CCOC(=O)c1cnc2c(ccc3ncccc32)c1OCC`, the TGI in the assay on OVCAR-3 ovarian, in the assay on HOP-62 NSCLC, in the assay on ACHN renal, in the assay with MALME-3M melanoma, in the assay with UO-31 renal and with UACC-62 melanoma was above 100 µM throughout. Further, the TGI in the assay on COLO 205 colon and with HCC-2998 colon was above 100 µM each time.
Consider `O=S1(=O)CS(=O)(=O)OCCCCCO1`, for which the TGI in the assay with ACHN renal, in the assay with MALME-3M melanoma, in the assay with UO-31 renal, with UACC-62 melanoma, with COLO 205 colon and with HCC-2998 colon was above 100 µM throughout.
For `Cc1cc(N(CCC#N)CCC#N)ccc1/C=C1N=C(/C=C\c2ccccc2)N(c2ccc(C(=O)O)cc2)C\1=O`, the TGI with SF-295 CNS, in the assay with OVCAR-3 ovarian, in the assay on HOP-62 NSCLC, with ACHN renal, in the assay on MALME-3M melanoma and with UO-31 renal was above 100 µM each time. In addition, the TGI with UACC-62 melanoma and in the assay on COLO 205 colon was above 100 µM throughout.
Regarding `CN(C)CCC(/C=C/c1ccccc1)=N\Nc1c(F)c(F)c(F)c(F)c1F`, the TGI in the assay with SF-295 CNS, in the assay on OVCAR-3 ovarian, in the assay with HOP-62 NSCLC, in the assay on ACHN renal, in the assay with MALME-3M melanoma and with UO-31 renal was above 100 µM in each case. The TGI in the assay with UACC-62 melanoma and in the assay on COLO 205 colon was above 100 µM throughout.
On to `COc1ccc(S(=O)(=O)NNS(C)(=O)=O)cc1OC`, for which the TGI in the assay on SF-295 CNS, in the assay with HOP-62 NSCLC, in the assay on ACHN renal, with MALME-3M melanoma, with UO-31 renal and in the assay on UACC-62 melanoma was above 100 µM throughout. For the same molecule, the TGI in the assay on COLO 205 colon and in the assay with HCC-2998 colon was above 100 µM each time.
Take `C=C(/C=C/C=C(\CO)CCC=C(C)C)[C@H]1CCC2([C@H](CCCO)/C(=C(/C)C=O)CC[C@]2(C)O)[C@H]1O` (stereo partly drawn): the TGI in the assay with SF-295 CNS, with OVCAR-3 ovarian, in the assay with HOP-62 NSCLC, with ACHN renal, in the assay on MALME-3M melanoma and with UACC-62 melanoma was above 100 µM throughout. For the same molecule, the TGI in the assay with COLO 205 colon and with HCC-2998 colon was above 100 µM each time.
As for `COC(=O)C1C(=O)NC2(C)CC1c1ccccc1O2` (stereo not drawn), the TGI in the assay on SF-295 CNS was above 100 µM; in the assay on OVCAR-3 ovarian, above 10 µM; in the assay with HOP-62 NSCLC, above 10 µM; in the assay with ACHN renal, above 100 µM; in the assay on MALME-3M melanoma, above 100 µM; in the assay with UO-31 renal it was above 100 µM. For the same molecule, the TGI in the assay with UACC-62 melanoma and in the assay on HCC-2998 colon was above 100 µM in each case.
In the case of `NC(=O)C1C(=O)Oc2cccnc21` (stereo not drawn), the TGI in the assay with SF-295 CNS, with OVCAR-3 ovarian, in the assay with HOP-62 NSCLC, in the assay on ACHN renal, in the assay on MALME-3M melanoma and with UO-31 renal was above 100 µM in each case. The TGI with UACC-62 melanoma and in the assay on COLO 205 colon was above 100 µM each time.
With `Cc1ccc(/C=C2\CCCC(C(NO)c3ccc(C)cc3)C2=NO)cc1` (stereo not drawn), the TGI with OVCAR-3 ovarian is 43.7 µM; with HOP-62 NSCLC, above 100 µM; in the assay on ACHN renal, above 100 µM; in the assay on MALME-3M melanoma, above 100 µM; in the assay with UO-31 renal, above 100 µM; with UACC-62 melanoma it was above 100 µM. The figures for the TGI in the assay with COLO 205 colon and in the assay on HCC-2998 colon were 38.5 µM and 62 µM, respectively.
Regarding `O=C(Cn1ccnc1[N+](=O)[O-])NCc1ccc(F)cc1`, the TGI in the assay with SF-295 CNS, in the assay with OVCAR-3 ovarian, in the assay with HOP-62 NSCLC, in the assay on ACHN renal, with MALME-3M melanoma and in the assay with UO-31 renal was above 100 µM each time. Further, the TGI with UACC-62 melanoma and with COLO 205 colon was above 100 µM throughout.
Take `COc1cc2ccc(CC(=O)O)cc2cc1OC`: the TGI with OVCAR-3 ovarian, in the assay with HOP-62 NSCLC, in the assay on ACHN renal, in the assay with MALME-3M melanoma, in the assay on UO-31 renal and in the assay with UACC-62 melanoma was above 100 µM each time. For the same molecule, the TGI in the assay with COLO 205 colon and in the assay with HCC-2998 colon was above 100 µM each time.
In the case of `CCOc1ccccc1NC(=O)C1=C(C)NC(C)=C(C(=O)Nc2ccccc2OCC)C1c1ccc2c(c1)OCO2`, the TGI is 74.6 µM in the assay on SF-295 CNS; 71.8 µM with OVCAR-3 ovarian; above 100 µM in the assay with HOP-62 NSCLC; above 100 µM with ACHN renal; 83.5 µM in the assay on MALME-3M melanoma; above 100 µM in the assay with UO-31 renal. Further, the values for the TGI in the assay on COLO 205 colon and with HCC-2998 colon were above 100 µM and 54.9 µM, respectively.
